Data on one compound can be found in publication PMC7556876, “POMK regulates dystroglycan function via LARGE1-mediated elongation of matriglycan” (eLife, 2020).

This assay deals with T1, POMK (Protein O-Mannose Kinase) (Danio rerio, UniProt Q5U3W1).
T1 construct: Purified Danio rerio POMK
Description: ligand-observed 1D 1H NMR titration (Man H1 peak intensity). Format: binding.

T1 sequence (Q5U3W1 whole entry): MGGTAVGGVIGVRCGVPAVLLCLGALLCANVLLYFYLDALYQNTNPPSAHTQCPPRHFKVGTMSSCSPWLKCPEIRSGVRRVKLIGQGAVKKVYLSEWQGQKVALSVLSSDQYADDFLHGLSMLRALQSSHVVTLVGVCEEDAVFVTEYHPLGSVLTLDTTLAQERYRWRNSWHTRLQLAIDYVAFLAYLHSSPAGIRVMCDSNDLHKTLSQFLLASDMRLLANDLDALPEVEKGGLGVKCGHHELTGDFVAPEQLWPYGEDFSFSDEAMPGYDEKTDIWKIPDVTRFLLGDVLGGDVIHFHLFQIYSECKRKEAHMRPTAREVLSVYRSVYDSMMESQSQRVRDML

As a reminder, the Kd is the free concentration of one partner at which half of the binding sites on the other are occupied at equilibrium, for simple one-to-one binding. `CC(=O)N[C@H]1[C@H](O[C@H]2[C@H](O)[C@@H](CO)O[C@@H](O[C@H]3[C@H](O)[C@H](O)[C@@H](Oc4ccc5c(C)cc(=O)oc5c4)O[C@@H]3COP(=O)(O)O)[C@@H]2NC(C)=O)O[C@H](CO)[C@H](O)[C@@H]1O` [GGMp-MU]: the Kd was more than 500 µM.
